How the values were obtained:
normal WI-38 cells = experiment: Cell viability of normal WI-38 cells after 72 hours of compound treatment; assay type: cell-based; settings: Homo sapiens, cell viability at 72 hours post-treatment
Description: (§1) Normal WI-38 cells and IR-induced senescent cells were incubated with increasing concentrations of compounds of Formula (I). At 72 hours post-treatment cell viability was measured and ED50was calculated. Table 1 depicts the ED50 values of the compounds of Formula (I) against normal and IR-induced senescent cells.

[1] = system: IR-induced senescent cells (IR-SC WI-38); experiment: Cell viability of IR-induced senescent WI-38 cells after 72 hours of compound treatment; assay type: cell-based; settings: for EC50: Homo sapiens, IR-induced senescent WI-38 cells, cell viability at 72 hours post-treatment; for selective killing of senescent WI38 cells over normal WI38 cells: ionizing radiation (IR, 10 Gy) induced senescent vs normal WI38 cells, viability at 72 hours, percent of control
Description: as §1

| Structure (SMILES) | EC50 (normal WI-38 cells) [µM] | EC50 [1] [µM] | selective killing of senescent WI38 cells over normal WI38 cells [1] |
| --- | --- | --- | --- |
| COc1cc(/C=C/C(=O)N2CCC=C(F)C2=O)cc(OC)c1OC [No 1] | 12.1 | 15.3 | – |
| COc1cc(/C=C/C(=O)N2CCCC=C(Br)C2=O)cc(OC)c1OC [No 6] | 3.6 | 0.56 | – |
| O=C1C(Cl)=CCCN1S(=O)(=O)/C=C/c1ccccc1 [No 15] | 8.8 | 0.94 | – |
| COc1cc(/C=C/C(=O)N2CCC=C(I)C2=O)cc(OC)c1OC [No 4] | 18.3 | 2.3 | – |
| COc1ccc(/C=C/C(=O)N2CCC=C(Br)C2=O)cc1 [No 9] | 1.1 | 0.63 | – |
| COc1ccc(/C=C/C(=O)N2CCCC=C(Cl)C2=O)cc1 [No 10] | 1.5 | 0.16 | – |
| O=C1C(Br)=CCCN1S(=O)(=O)/C=C/c1ccccc1 [No 16] | 28.1 | 2.8 | – |
| O=C1C(Br)=CCCN1C(=O)c1cc2ccccc2oc1=O [No 13] | 6.2 | 1.7 | – |
| C=CC(=O)N1OCC=CC1=O [No 12] | 16.3 | 5.7 | – |
| COc1cc(/C=C/C(=O)N2CCC=C(Br)C2=O)cc(OC)c1OC [No 3] | 5.4 | 0.52 | – |
| COc1ccc(/C=C/C(=O)N2CCC=C(Cl)C2=O)cc1 [No 8] | 0.35 | 0.51 | – |
| COc1cc(/C=C/C(=O)N2OCC=CC2=O)cc(OC)c1OC [No 7] | 47.7 | 8 | – |
| COc1cc(C(Cl)=CC(=O)N2CCCC=CC2=O)cc(OC)c1OC [XZ-12089, (E)-β-chloro-1-(β-(3,4,5-trimethoxyphenyl)acryloyl)-1,5,6,7-tetrahydro-2H-azepin-2-one] | – | – | selectively kills senescent WI38 cells over normal WI38 cells |
| O=C1C(Br)=CCCCN1C(=O)c1cc2ccccc2oc1=O [No 14] | 5 | 4 | – |
| COc1cc(/C=C/C(=O)N2CCC=C(Cl)C2=O)cc(OC)c1OC [No 2] | 5.3 | 0.65 | – |
| COc1ccc(/C=C/C(=O)N2CCCC=C(Br)C2=O)cc1 [No 11] | 5.8 | 1.3 | – |
| COc1cc(/C=C/C(=O)N2CCCC=C(Cl)C2=O)cc(OC)c1OC [No 5] | 1.7 | 0.45 | – |
| COc1cc(/C=C/C(=O)N2OCC=CC2=O)cc(OC)c1OC [XZ-12037, (E)-2-(β-(3,4,5-trimethoxyphenyl)acryloyl)-2H-1,2-oxazin-3(6H)-one] | – | – | selectively kills senescent WI38 cells over normal WI38 cells |
